Data reported in ChEMBL document CHEMBL5331066, “Structure-guided design of novel HEPT analogs with enhanced potency and safety: From Isopropyl-HEPTs to Cyclopropyl-HEPTs” (Eur J Med Chem, 2023).

Columns and labels:
[1] = tested on: Human immunodeficiency virus 1; assay: Antiviral activity against HIV1 harboring L100I mutant infected in human MT4 cells assessed as protection against virus-induced cytopathicity; format: functional, organism-based; conditions: Human immunodeficiency virus 1, MT4
[2] = tested on: Human immunodeficiency virus 1; assay: Antiviral activity against wild type HIV1 IIIB infected in human MT4 cells assessed as protection against virus-induced cytopathicity; format: functional, organism-based; conditions: Human immunodeficiency virus 1, IIIB
[3] = Cytotoxicity against human MT4 cells assessed as reduction in cell viability; format: toxicity, cell-based
[4] = Selectivity index, ratio of CC50 for cytotoxicity against human MT4 cells to EC50 for antiviral activity against wild type HIV1 IIIB infected in human MT4 cells; format: toxicity, cell-based; conditions: read-out: Ratio CC50/EC50
[5] = tested on: Human immunodeficiency virus 1; assay: Antiviral activity against HIV1 harboring K103 N mutant infected in human MT4 cells assessed as protection against virus-induced cytopathicity; format: functional, organism-based; conditions: Human immunodeficiency virus 1, MT4
[6] = tested on: Human immunodeficiency virus 1; assay: Antiviral activity against HIV1 harboring Y181C mutant infected in human MT4 cells assessed as protection against virus-induced cytopathicity; format: functional, organism-based; conditions: Human immunodeficiency virus 1, MT4
[7] = tested on: Human immunodeficiency virus 1; assay: Antiviral activity against HIV1 harboring Y188L mutant infected in human MT4 cells assessed as protection against virus-induced cytopathicity; format: functional, organism-based; conditions: Human immunodeficiency virus 1, MT4
[8] = tested on: Human immunodeficiency virus 1; assay: Antiviral activity against HIV1 harboring E138K mutant infected in human MT4 cells assessed as protection against virus-induced cytopathicity; format: functional, organism-based; conditions: Human immunodeficiency virus 1, MT4
[9] = biological target: Human immunodeficiency virus type 1 reverse transcriptase (Human immunodeficiency virus 1, UniProt Q72547); assay: Inhibition of wild type HIV-1 reverse transcriptase assessed as inhibition of biotin deoxyuridine triphosphate incorporation into […]

SMILES | EC50 [1] | EC50 [2] | CC50 [3] | selectivity ratio [4] | EC50 [5] | EC50 [6] | EC50 [7] | EC50 [8] | IC50 [9]
Cc1ccc(Sc2c(C3CC3)c(=O)[nH]c(=O)n2COCc2ccccc2)c(C)c1 | 4.75 µM | 4.75 µM | 32.2 µM | 7 | > 32.2 µM | > 32.2 µM | > 32.2 µM | > 32.2 µM | 5.39 µM
Cc1cccc(Sc2c(C3CC3)c(=O)[nH]c(=O)n2COCc2ccccc2)c1 | 0.17 µM | 0.028 µM | 32.5 µM | 1160 | 2.76 µM | 2.56 µM | > 32.5 µM | 0.16 µM | –
O=c1[nH]c(=O)n(COCc2ccccc2)c(Sc2ccc(Br)cc2)c1C1CC1 | 4.05 µM | 6.18 µM | 25.9 µM | > 4 | > 25.9 µM | 4.11 µM | > 25.9 µM | 9.8 µM | 3.92 µM
COc1ccc(OC)c(Sc2c(C3CC3)c(=O)[nH]c(=O)n2COCc2ccccc2)c1 | 0.66 µM | 0.22 µM | 33.4 µM | 150 | > 33.4 µM | 5.68 µM | > 33.4 µM | 0.99 µM | –
O=c1[nH]c(=O)n(COCc2ccccc2)c(Sc2ccc(F)cc2)c1C1CC1 | 1.88 µM | 0.75 µM | 38.8 µM | 53 | > 40.8 µM | 6.4 µM | > 40.8 µM | 2.03 µM | –
COc1ccc(Sc2c(C3CC3)c(=O)[nH]c(=O)n2COCc2ccccc2)cc1 | – | > 44.6 µM | 44.6 µM | < 1 | – | – | – | – | –
O=c1[nH]c(=O)n(COCc2ccccc2)c(Sc2ccccc2F)c1C1CC1 | 0.45 µM | 0.043 µM | 34.7 µM | 813 | 4.99 µM | 4.47 µM | > 34.7 µM | 0.35 µM | 0.06 µM
COc1cccc(OC)c1Sc1c(C2CC2)c(=O)[nH]c(=O)n1COCc1ccccc1 | 144 µM | 6.7 µM | > 284 µM | > 40 | > 284 µM | > 284 µM | > 284 µM | > 284 µM | –
O=c1[nH]c(=O)n(COCc2ccccc2)c(Sc2cc(F)cc(F)c2)c1C1CC1 | 0.43 µM | 0.036 µM | 30 µM | 842 | 3.01 µM | 4.27 µM | > 30 µM | 0.19 µM | 0.1 µM
O=c1[nH]c(=O)n(COCc2ccccc2)c(Sc2ccccc2Br)c1C1CC1 | 0.54 µM | 0.15 µM | 27.2 µM | 184 | 7.21 µM | 2.66 µM | > 27.2 µM | 0.41 µM | 0.16 µM
Cc1ccccc1Sc1c(C2CC2)c(=O)[nH]c(=O)n1COCc1ccccc1 | 1.07 µM | 0.15 µM | 30.1 µM | 203 | > 7.96 µM | 5.35 µM | > 30.1 µM | 0.89 µM | 0.3 µM
O=c1[nH]c(=O)n(COCc2ccccc2)c(Sc2cc(Cl)cc(Cl)c2)c1C1CC1 | 0.4 µM | 0.073 µM | 28.7 µM | 395 | 2.74 µM | 1.71 µM | 7.7 µM | 0.45 µM | 0.11 µM
O=c1[nH]c(=O)n(COCc2ccccc2)c(Sc2ccc(Cl)cc2Cl)c1C1CC1 | 4.43 µM | 5.3 µM | 34 µM | 6 | > 30 µM | ≥ 11.1 µM | > 30 µM | > 30 µM | 5.56 µM
O=c1[nH]c(=O)n(COCc2ccccc2)c(Sc2ccc(Cl)cc2)c1C1CC1 | 4.48 µM | 4.46 µM | 30.2 µM | 7 | > 30.3 µM | 3.78 µM | > 30.3 µM | > 30.3 µM | 5.78 µM
O=c1[nH]c(=O)n(COCc2ccccc2)c(Sc2ccccc2)c1C1CC1 | 1.23 µM | 0.039 µM | 49.9 µM | 1250 | > 30.7 µM | 9.83 µM | > 30.7 µM | 2.79 µM | –
O=c1[nH]c(=O)n(COCc2ccccc2)c(Sc2ccc(F)cc2F)c1C1CC1 | 3.1 µM | 1.2 µM | 33.5 µM | 28 | > 33.5 µM | ≥ 9.44 µM | > 33.5 µM | 8.38 µM | 1.8 µM
O=c1[nH]c(=O)n(COCc2ccccc2)c(Sc2cccc(F)c2F)c1C1CC1 | 0.5 µM | 0.14 µM | 31.4 µM | 224 | > 3.84 µM | > 31.4 µM | > 31.4 µM | 0.5 µM | 0.24 µM

SMILES | EC50 [1] | EC50 [2] | CC50 [3] | selectivity ratio [4] | EC50 [5] | EC50 [6] | EC50 [7] | EC50 [8] | IC50 [9]
O=c1[nH]c(=O)n(COCc2ccccc2)c(Sc2cccc(F)c2)c1C1CC1 | 0.25 µM | 0.025 µM | 38.8 µM | 1520 | 2.99 µM | 3.36 µM | > 38.8 µM | 0.13 µM | 0.04 µM
O=c1[nH]c(=O)n(COCc2ccccc2)c(Sc2c(Cl)cccc2Cl)c1C1CC1 | 2.65 µM | 3.14 µM | 22.9 µM | 7 | > 22.9 µM | > 22.9 µM | > 22.9 µM | 3.07 µM | 4.23 µM
O=c1[nH]c(=O)n(COCc2ccccc2)c(Sc2cccc(Cl)c2)c1C1CC1 | 0.36 µM | 0.048 µM | 29.7 µM | 613 | 3.74 µM | 3.28 µM | > 29.7 µM | 0.19 µM | 0.06 µM
O=c1[nH]c(=O)n(COCc2ccccc2)c(Sc2ccccc2Cl)c1C1CC1 | 0.63 µM | 0.053 µM | 27.3 µM | 515 | 9.14 µM | 2.94 µM | > 27.3 µM | 0.43 µM | 0.09 µM
O=c1[nH]c(=O)n(COCc2ccccc2)c(Sc2c(F)cccc2F)c1C1CC1 | 2.01 µM | 0.34 µM | 29 µM | 89 | > 29 µM | > 29 µM | > 29 µM | 1.51 µM | 0.72 µM
COc1ccc(Sc2c(C3CC3)c(=O)[nH]c(=O)n2COCc2ccccc2)c(OC)c1 | – | > 30.9 µM | 30.9 µM | < 1 | – | – | – | – | –
CC(C)c1c(Sc2cccc3ccccc23)n(COCc2ccccc2)c(=O)[nH]c1=O | – | 0.063 µM | 34 µM | 565 | – | – | – | – | –
O=c1[nH]c(=O)n(COCc2ccccc2)c(Sc2cccc(Br)c2)c1C1CC1 | 0.37 µM | 0.11 µM | 26.5 µM | 239 | 3.64 µM | 3.09 µM | > 26.5 µM | 0.24 µM | 0.07 µM
O=c1[nH]c(=O)n(COCc2ccccc2)c(Sc2cc(Cl)ccc2Cl)c1C1CC1 | 0.12 µM | 0.029 µM | 33.9 µM | 1140 | 1.51 µM | 0.51 µM | 7.92 µM | 0.07 µM | 0.03 µM
O=c1[nH]c(=O)n(COCc2ccccc2)c(Sc2cccc(Cl)c2Cl)c1C1CC1 | 2.34 µM | 0.8 µM | 27.4 µM | 34 | > 27.4 µM | > 27.4 µM | > 27.4 µM | 0.67 µM | 1.22 µM
Cc1ccc(C)c(Sc2c(C3CC3)c(=O)[nH]c(=O)n2COCc2ccccc2)c1 | 0.19 µM | 0.071 µM | 74.8 µM | 1050 | 4.16 µM | 2.01 µM | 19.1 µM | 0.23 µM | 0.08 µM
COc1cc(OC)cc(Sc2c(C3CC3)c(=O)[nH]c(=O)n2COCc2ccccc2)c1 | 1.79 µM | 0.77 µM | 29.7 µM | 38 | > 29.7 µM | 9.63 µM | > 29.7 µM | 3.07 µM | –
O=c1[nH]c(=O)n(COCc2ccccc2)c(Sc2cccc3ccccc23)c1C1CC1 | 23.1 µM | 0.84 µM | 30.7 µM | 36 | > 177 µM | 24.5 µM | > 177 µM | 31.6 µM | –
Cc1ccc(Sc2c(C3CC3)c(=O)[nH]c(=O)n2COCc2ccccc2)cc1 | 2.05 µM | 2.59 µM | 31.8 µM | 12 | > 31.8 µM | 5.22 µM | > 31.8 µM | 10.2 µM | 3.8 µM
Cc1c(Sc2ccccc2)n(COCCO)c(=O)[nH]c1=O [HEPT] | – | 7 µM | 740 µM | 106 | – | – | – | – | –
Cc1ccnc2c1NC(=O)c1cccnc1N2C1CC1 [NEVIRAPINE] | 1.28 µM | 0.086 µM | > 9.51 µM | – | 5.33 µM | 7.04 µM | > 9.51 µM | 0.14 µM | –
Cc1cn([C@H]2C[C@H](N=[N+]=[N-])[C@@H](CO)O2)c(=O)[nH]c1=O [ZIDOVUDINE] | 0.016 µM | 0.028 µM | > 7.48 µM | > 309 | 0.026 µM | 0.02 µM | 0.029 µM | – | 2.2 µM
